In patent US20260159536A1, “AKR1C3-ACTIVATED DNA ALKYLATING AGENT, AND MEDICAL APPLICATION THEREOF” (ASCENTAWITS PHARMACEUTICALS, LTD., priority 2021, published 2026):
Read-outs that look alike come from different tables or passages of the source.

Assays:
NCI-H23 = test: AKR1C3-dependent cytotoxicity, NSCLC cell line NCI-H23; type: cell-based; details: Homo sapiens
Protocol: (§1) The tested compound was then added. The compound was dissolved in 100% DMSO at 200 times of the desired final test concentration. When the medicament was added, the compound was further diluted to 4 times of the desired final test concentration by using the complete medium. 50 μL of aliquots of the compound with specific concentration were added to the microwells containing 150 μL of medium, and then the final medicament concentration was obtained. […] The medicament was then washed. […] After the incubation was finished, the Alamar Blue was used to analyze and quantify the living cells.

NCI-H2110 = test: AKR1C3-dependent cytotoxicity, NSCLC cell line NCI-H2110; type: cell-based
Protocol: as §1

[1] = Liver microsome stability, mouse; type: in vitro ADME; details: for Percentage remaining after 30 minutes: Mouse liver microsomes
Protocol: (§2) 1) Two individual experiments were performed.
(§3) All experiments were performed in duplicate.

[2] = test system: HuPrime model LI6643 human liver cancer; test: In vivo pharmacodynamics, liver cancer LI6643 PDX model (Compound A, Sorafenib, AST-3424; section 4.7); set-up: species or system BALB/c nude mice; details: for Relative tumor volume (x ± S) / T/C (%) / TGI (%) / Tumor volume (x ± S): 2 weeks off, QDx5; for Tumor volume (x ± S): in mm³
Protocol: Experiment Instruction: BALB/c nude mice were subcutaneously inoculated with HuPrime® model LI6643 tumor blocks to establish a subcutaneous grafted tumor model of human liver cancer. […] The efficacy was evaluated according to the relative tumor inhibition rate TGI (%), and the safety was evaluated according to the change in body weight and the death of the animals.

H460 cells = test: Inhibition of H460 cancer cell proliferation (CTG, 72 h); type: cell-based; details: Homo sapiens, NCI-H460
Protocol: If not otherwise specified, IC50 values were measured by the following experimental methods:
c) The cell suspension was added to 96-well plate with 100 μL per well and 2000 cells/well of cell density.
a) Cells were plated for 24 hours, and then the compounds acted singly. 99 μL of growth medium was supplemented per well, and then 1 μL of 200× compound was added, gently shaken to ensure uniform mixing, and then placed in a 37° C., 5% CO2 incubator.
b) The cell plate was placed in the incubator for 72 hours.
b) 100 μL of CTG reagent (CelltiterGlo kit) was added to each well, the plate was placed in a rapid oscillator and shaken for 2 minutes, and then placed at room temperature for 30 minutes away from light.
c) The chemiluminescence signal value was read with Envision instrument.
The IC50 was calculated using GraphPad Prism 8 software and the IC50 (half inhibitory concentration) of the compounds was obtained using the following non-linear fitting formula: […]

NCI-H1563 = test: AKR1C3-dependent cytotoxicity, NSCLC cell line NCI-H1563; type: cell-based; details: Homo sapiens
Protocol: as §1

NCI-H522 = test: AKR1C3-dependent cytotoxicity, NSCLC cell line NCI-H522; type: cell-based; details: Homo sapiens
Protocol: as §1

H460 cancer cells = test: H460 proliferation in the presence or absence of AKR1C3 inhibitor AST-3021 (Alamar Blue); type: cell-based, human; details: for IC50: Homo sapiens, NCI-H460, H460, 2 hours exposure
Protocol: as §1

NCIH1755 = test: AKR1C3-dependent cytotoxicity, NSCLC cell line NCIH1755; type: cell-based; details: Homo sapiens, NCI-H1755
Protocol: as §1

[3] = Liver microsome stability, human; type: in vitro ADME; details: for Percentage remaining after 30 minutes: Human liver microsomes
Protocol: as §2, §3

[4] = test system: HuPrime model GA6201 human gastric cancer; details: for Relative tumor volume (x ± S) / T/C (%) / TGI (%) / Tumor volume (x ± S): Day 38
Protocol: The test was divided into groups of the test drug Isocyclophosphamide 60 mg/kg group, the test drug AST-3424 5 mg/kg group, the test drug A compound 2.5 mg/kg and 5 mg/kg groups, and normal saline (pH 7.0-7.6) vehicle control group, a total of 5 groups, with 5 mice per group.
In the above dosing regimen, Isocyclophosphamide was designed based on the best dosing regimen with maximum safe dosage as recited in the document (Jessica D. Sun, Qian Liu, Dharmendra Ahluwalia, Damien J. Ferraro, Yan Wang, Don Jung, Mark D. Matteucci, and Charles P. Hart. Comparison of hypoxia-activated prodrug evofosfamide (TH-302) and ifosfamide in preclinical non-small cell lung cancer models [J]. Cancer Biology & Therapy, 2016, 17(4): 371-380).

[5] = Liver microsome stability, monkey; type: in vitro ADME; details: for Percentage remaining after 30 minutes: Monkey liver microsomes
Protocol: as §2, §3

[6] = Liver microsome stability, rat; type: in vitro ADME; details: for Percentage remaining after 30 minutes: Rat liver microsomes
Protocol: as §2, §3

[7] = 0.5 mg/kg i.v. QDx5, 2 days off, Day 21
[8] = 2 mg/kg i.v. QDx5, 2 days off, Day 21
[9] = Compound A 1 mg/kg i.v. QDx5, 2 days off, Day 21

Structure (SMILES): O=[N+]([O-])c1ccc(C(OP(=O)(N2CC2)N2CC2)C(F)(F)F)cc1Oc1ccc(-c2ccc(F)cc2)c(F)c1 (racemic) [Compound A]
- IC50 (NCI-H23): 11.9 µM
- IC50 (NCI-H2110): 67.8 nM
- Percentage remaining after 30 minutes ([1]; with the addition of NADPH): 98.59%
- Percentage remaining after 30 minutes ([1]; without the addition of NADPH): 104.30%
- stability in liver microsomes ([1]; mouse): relatively stable
- Relative tumor volume (x ± S) [2, 7]: 1.84 ± 0.25
- T/C (%) [2, 7]: 38.12%
- TGI (%) [2, 7]: 61.88%
- Tumor volume (x ± S) [2, 7]: 242.85 ± 50.74
- Tumor volume ([2]; 0.5 mg/kg i.v., Day 0): 124.86 mm^3
- Tumor volume ([2]; 0.5 mg/kg i.v., Day 3): 239.56 mm^3
- Tumor volume ([2]; 0.5 mg/kg i.v., Day 7): 282.74 mm^3
- Tumor volume ([2]; 0.5 mg/kg i.v., Day 10): 266.35 mm^3
- Tumor volume ([2]; 0.5 mg/kg i.v., Day 14): 231.35 mm^3
- Tumor volume ([2]; 0.5 mg/kg i.v., Day 17): 241.82 mm^3
- Tumor volume ([2]; 0.5 mg/kg i.v., Day 21): 242.85 mm^3
- Tumor volume ([2]; 0.5 mg/kg i.v., Day 24): 173.56 mm^3
- Tumor volume ([2]; 0.5 mg/kg i.v., Day 28): 188.68 mm^3
- Relative tumor volume (x ± S) [2, 8]: 0.97 ± 0.14
- T/C (%) [2, 8]: 20.19%
- TGI (%) [2, 8]: 79.81%
- Tumor volume (x ± S) [2, 8]: 116.38 ± 20.17
- Tumor volume ([2]; 2 mg/kg i.v., Day 0): 124.40 mm^3
- Tumor volume ([2]; 2 mg/kg i.v., Day 3): 182.25 mm^3
- Tumor volume ([2]; 2 mg/kg i.v., Day 7): 182.74 mm^3
- Tumor volume ([2]; 2 mg/kg i.v., Day 10): 162.65 mm^3
- Tumor volume ([2]; 2 mg/kg i.v., Day 14): 137.87 mm^3
- Tumor volume ([2]; 2 mg/kg i.v., Day 17): 117.10 mm^3
- Tumor volume ([2]; 2 mg/kg i.v., Day 21): 116.38 mm^3
- Tumor volume ([2]; 2 mg/kg i.v., Day 24): 122.78 mm^3
- Tumor volume ([2]; 2 mg/kg i.v., Day 28): 95.87 mm^3
- Relative tumor volume (x ± S) [2, 9]: 1.44 ± 0.16
- T/C (%) [2, 9]: 29.91%
- TGI (%) [2, 9]: 70.09%
- Tumor volume (x ± S) [2, 9]: 174.86 ± 17.43
- Tumor volume ([2]; Compound A 1 mg/kg i.v., Day 0): 124.32 mm^3
- Tumor volume ([2]; Compound A 1 mg/kg i.v., Day 3): 205.79 mm^3
- Tumor volume ([2]; Compound A 1 mg/kg i.v., Day 7): 246.90 mm^3
- Tumor volume ([2]; Compound A 1 mg/kg i.v., Day 10): 225.40 mm^3
- Tumor volume ([2]; Compound A 1 mg/kg i.v., Day 14): 195.33 mm^3
- Tumor volume ([2]; Compound A 1 mg/kg i.v., Day 17): 191.98 mm^3
- Tumor volume ([2]; Compound A 1 mg/kg i.v., Day 21): 174.86 mm^3
- Tumor volume ([2]; Compound A 1 mg/kg i.v., Day 24): 217.19 mm^3
- Tumor volume ([2]; Compound A 1 mg/kg i.v., Day 28): 231.64 mm^3
- IC50 (H460 cells): 6.87 nM
- IC50 (NCI-H1563): 454 nM
- IC50 (NCI-H522): 14.1 µM
- IC50 (H460 cancer cells; AST-3021 3 micromolar, read-out: IC50 With the addition of AST-3021): 2140 nM
- IC50 (H460 cancer cells; no AKR1C3 inhibitor, read-out: IC50 Without the addition of AST-3021): 5.82 nM
- Fold (H460 cancer cells; IC50 with AST-3021 over IC50 without): 367.13
- IC50 (NCIH1755): 570 nM
- Percentage remaining after 30 minutes ([3]; with the addition of NADPH): 115.25%
- Percentage remaining after 30 minutes ([3]; without the addition of NADPH): 111.93%
- stability in liver microsomes ([3]; human): relatively stable
- relative tumor inhibition rate (TGI) ([4]; 2.5 mg/kg and 5 mg/kg i.v. QWx2): more than 96%
- Relative tumor volume (x ± S) ([4]; 2.5 mg/kg i.v. QWx2): 0.29 ± 0.08
- T/C (%) ([4]; 2.5 mg/kg i.v. QWx2): 3.15%
- TGI (%) ([4]; 2.5 mg/kg i.v. QWx2): 96.85%
- Tumor volume (x ± S) ([4]; 2.5 mg/kg i.v. QWx2): 28.69 ± 8.2
- Tumor volume ([4]; 2.5 mg/kg i.v., 0 day): 94.61 mm^3
- Tumor volume ([4]; 2.5 mg/kg i.v., 3 days): 120.19 mm^3
- Tumor volume ([4]; 2.5 mg/kg i.v., 7 days): 118.33 mm^3
- Tumor volume ([4]; 2.5 mg/kg i.v., 10 days): 118.65 mm^3
- Tumor volume ([4]; 2.5 mg/kg i.v., 14 days): 96.08 mm^3
- Tumor volume ([4]; 2.5 mg/kg i.v., 17 days): 76.14 mm^3
- Tumor volume ([4]; 2.5 mg/kg i.v., 21 days): 71.72 mm^3
- Tumor volume ([4]; 2.5 mg/kg i.v., 24 days): 57.94 mm^3
- Tumor volume ([4]; 2.5 mg/kg i.v., 28 days): 45.51 mm^3
- Tumor volume ([4]; 2.5 mg/kg i.v., 31 days): 43.44 mm^3
- Tumor volume ([4]; 2.5 mg/kg i.v., 35 days): 32.04 mm^3
- Tumor volume ([4]; 2.5 mg/kg i.v., 38 days): 28.69 mm^3
- Tumor volume ([4]; 2.5 mg/kg i.v., 42 days): 23.49 mm^3
- Tumor volume ([4]; 2.5 mg/kg i.v., 45 days): 25.00 mm^3
- Tumor volume ([4]; 2.5 mg/kg i.v., 49 days): 17.72 mm^3
- Relative tumor volume (x ± S) ([4]; Compound A 5 mg/kg i.v. QWx2): 0.19 ± 0.08
- T/C (%) ([4]; Compound A 5 mg/kg i.v. QWx2): 2.04%
- TGI (%) ([4]; Compound A 5 mg/kg i.v. QWx2): 97.96%
- Tumor volume (x ± S) ([4]; Compound A 5 mg/kg i.v. QWx2): 19.97 ± 10.18
- Tumor volume ([4]; Compound A 5 mg/kg i.v., 0 day): 94.36 mm^3
- Tumor volume ([4]; Compound A 5 mg/kg i.v., 3 days): 118.42 mm^3
- Tumor volume ([4]; Compound A 5 mg/kg i.v., 7 days): 101.91 mm^3
- Tumor volume ([4]; Compound A 5 mg/kg i.v., 10 days): 97.17 mm^3
- Tumor volume ([4]; Compound A 5 mg/kg i.v., 14 days): 74.20 mm^3
- Tumor volume ([4]; Compound A 5 mg/kg i.v., 17 days): 59.77 mm^3
- Tumor volume ([4]; Compound A 5 mg/kg i.v., 21 days): 46.21 mm^3
- Tumor volume ([4]; Compound A 5 mg/kg i.v., 24 days): 44.03 mm^3
- Tumor volume ([4]; Compound A 5 mg/kg i.v., 28 days): 38.50 mm^3
- Tumor volume ([4]; Compound A 5 mg/kg i.v., 31 days): 35.92 mm^3
- Tumor volume ([4]; Compound A 5 mg/kg i.v., 35 days): 22.70 mm^3
- Tumor volume ([4]; Compound A 5 mg/kg i.v., 38 days): 19.97 mm^3
- Tumor volume ([4]; Compound A 5 mg/kg i.v., 42 days): 5.05 mm^3
- Tumor volume ([4]; Compound A 5 mg/kg i.v., 45 days): 11.14 mm^3
- Tumor volume ([4]; Compound A 5 mg/kg i.v., 49 days): 9.96 mm^3
- body weight change / toxic effects ([4]; GA6201 model, tested doses): no effect on the body weights
- Percentage remaining after 30 minutes ([5]; with the addition of NADPH): 82.29%
- Percentage remaining after 30 minutes ([5]; without the addition of NADPH): 81.30%
- stability in liver microsomes ([5]; monkey): relatively stable
- Percentage remaining after 30 minutes ([6]; with the addition of NADPH): 92.10%
- Percentage remaining after 30 minutes ([6]; without the addition of NADPH): 114.62%
- stability in liver microsomes ([6]; rat): relatively unstable
